Laboratory results as given in paper PMC9266368, “Synthesis and Biological Evaluation of Small Molecules as Potential Anticancer Multitarget Agents” (International Journal of Molecular Sciences, 2022).
Values joined by “and” are separate entries in the source; they are usually repeats but may differ in a detail not shown here. Equal values may be shown once.

What was measured:
[1] = tested on: MCF-7 (breast adenocarcinoma); assay: MTT cell viability assay, MCF-7; assay type: cell-based; details: Homo sapiens, MCF7, 48 h, 2 days incubation, average ±SD of three experiments
Description: (§1) The effects of triazole derivatives 1–26 on the cell viability were determined by MTT assay, and the IC50 values were determined toward the human tumor cell lines HT-29 (colon adenocarcinoma), A-549 (lung adenocarcinoma), and MCF-7 (breast adenocarcinoma), as well as toward the non-tumor cell line HEK-293 (human embryonic kidney cells).
(§2) In 96-well plates, 3 × 10^3 (A549 and HEK-293) or 5 × 10^3 (HT-29, MCF-7) cells per well were incubated with serial dilutions of the tested compounds in a total volume of 100 μL of their growth media. The 3-(4,5-dimethylthiazol-2-yl)-2,5-diphenyltetrazolium bromide (MTT; Sigma Chemical Co.) dye reduction assay in 96-well microplates was used. After 2 days of incubation (37 °C, 5% CO2 in a humid atmosphere), 10 μL of MTT (5 mg/mL in phosphate-buffered saline, PBS) was added to each well, and the plate was incubated for a further 3 h (37 °C). After that, the supernatant was discarded and replaced by 100 µL of DMSO to dissolve formazan crystals. The absorbance was then read at 550 nm by spectro-photometry. For all concentrations of compound, cell viability was expressed as the percentage of the ratio between the mean absorbance of treated cells and the mean absorbance of untreated cells. Three independent experiments were performed, and the IC50 values (i.e., concentration half inhibiting cell proliferation) were graphically determined by using GraphPad Prism 4 software (2019).

[2] = tested on: HEK-293 (human embryonic kidney cells); assay: MTT cell viability assay, HEK-293; assay type: cell-based; details: HEK293, 48 h, 2 days incubation, non-tumor cell line, average ±SD of three experiments
Description: as §1, §2

[3] = target: T1, membrane VEGFR-2 (mVEGFR-2) (Homo sapiens, UniProt P35968); assay: Membrane VEGFR-2 relative quantification by flow cytometry; assay type: cell-based; details: for mVEGFR-2 relative detection, A-549 / mVEGFR-2 relative detection, MCF-7 / mVEGFR-2 relative detection, HT-29: 24 h, 100 or 10 μM (Table 7), sorafenib 10 μM, percentage referred to DMSO control; for Inhibition of membrane VEGFR-2, HT-29: with respect to untreated cells
T1 construct: endogenous in cells; host or cells: HT-29, A-549, MCF-7
T1 sequence (P35968 20-1356): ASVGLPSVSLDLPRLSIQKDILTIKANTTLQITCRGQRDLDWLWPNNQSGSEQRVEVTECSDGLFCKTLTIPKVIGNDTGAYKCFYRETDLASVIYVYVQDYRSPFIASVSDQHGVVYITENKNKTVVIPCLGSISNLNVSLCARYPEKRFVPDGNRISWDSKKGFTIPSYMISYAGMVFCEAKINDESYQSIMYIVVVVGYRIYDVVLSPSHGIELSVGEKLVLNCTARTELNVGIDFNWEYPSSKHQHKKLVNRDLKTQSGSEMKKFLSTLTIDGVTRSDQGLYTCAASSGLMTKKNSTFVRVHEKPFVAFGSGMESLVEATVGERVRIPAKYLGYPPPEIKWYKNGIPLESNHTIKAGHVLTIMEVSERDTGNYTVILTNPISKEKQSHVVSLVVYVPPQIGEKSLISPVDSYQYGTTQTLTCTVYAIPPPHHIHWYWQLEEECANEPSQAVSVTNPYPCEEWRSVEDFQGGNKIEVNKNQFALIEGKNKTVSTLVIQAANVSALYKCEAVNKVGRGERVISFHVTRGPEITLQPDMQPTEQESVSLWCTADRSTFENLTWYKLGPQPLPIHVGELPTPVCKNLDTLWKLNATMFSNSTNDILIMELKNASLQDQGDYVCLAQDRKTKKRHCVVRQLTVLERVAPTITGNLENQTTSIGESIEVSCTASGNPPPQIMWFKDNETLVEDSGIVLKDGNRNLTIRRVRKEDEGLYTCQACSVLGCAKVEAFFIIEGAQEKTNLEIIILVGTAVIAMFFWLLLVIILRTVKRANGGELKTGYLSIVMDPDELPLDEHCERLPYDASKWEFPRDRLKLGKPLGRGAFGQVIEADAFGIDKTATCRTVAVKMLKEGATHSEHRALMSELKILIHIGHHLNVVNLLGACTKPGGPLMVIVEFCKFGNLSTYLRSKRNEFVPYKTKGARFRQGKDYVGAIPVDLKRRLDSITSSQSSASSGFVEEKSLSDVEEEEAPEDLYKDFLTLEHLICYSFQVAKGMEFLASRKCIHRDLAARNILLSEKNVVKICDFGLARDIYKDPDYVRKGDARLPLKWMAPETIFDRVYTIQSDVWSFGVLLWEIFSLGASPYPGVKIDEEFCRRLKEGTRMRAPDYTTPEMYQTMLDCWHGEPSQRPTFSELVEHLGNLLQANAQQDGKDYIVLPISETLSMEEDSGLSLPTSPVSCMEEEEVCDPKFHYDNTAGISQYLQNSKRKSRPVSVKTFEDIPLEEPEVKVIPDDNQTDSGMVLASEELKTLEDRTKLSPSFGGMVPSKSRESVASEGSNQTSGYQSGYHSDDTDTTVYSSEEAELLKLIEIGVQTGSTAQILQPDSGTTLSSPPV
Description: The presence of both targets in the membrane was relatively determined by using DMSO-treated cells as a negative control.
For the assay, 10^5 cells per well were incubated for 24 h with the corresponding dose of the tested compound in a total volume of 500 μL of their growth media.

VEGFR-2 kinase activity = assay: ADP assay of kinase activity in HT-29 cells; assay type: cell-based, human; details: 100 μM, 24 h; DMSO as negative control
Description: Finally, to assess the VEGFR-2 inhibitory activity of the selected compounds, namely 21, 22, and 23, we performed an ADP assay. This is a very useful technique that measures kinase activity by monitoring ADP accumulation in cell cultures instead of ATP concentrations.
For the assay, we used HT-29 cells that were previously treated with a 100 μM concentration of 21, 22, and 23, and we used DMSO as a negative control.
The kinase inhibitory activity of the selected compounds was studied as follows: first 10^5 HT-29 cells were seeded on a 12 well-plate, and then they were treated with 100 μM of the selected compounds for 24 h. Afterward, cells were collected, and the kinase activity was determined from collected pellets by following the manufacturer’s instructions indicated in the ADP Colorimetric Assay Kit II (Abcam S.A. reference ab282932).

HMEC-1 cells = assay: Tube formation on Matrigel (antiangiogenic activity); assay type: cell-based; details: 100 μM, 24 h
Description: Then we went on to study the effect of these selected compounds on the formation of new capillary networks. Again, HMEC-1 cells were seeded on Matrigel and treated with compounds 21, 22, and 23 at 100 μM. After 24 h of the corresponding treatments, we compared the cultures with non-treated cells, and the results are depicted in Figure 5d–f.
Wells of a IBIDI 15-well μ-plate for angiogenesis were coated with 15 μL of Matrigel® (10 mg/mL, BD Biosciences Europe) at 4 °C. After gelatinization at 37 °C for 30 min, HMEC-1 cells were seeded at 2 × 10^4 cells/well in 25 μL of culture medium on top of the Matrigel and were incubated for 30 min at 37 °C while they were attached.
For the tube-formation assay (study of antiangiogenic activity), 100 μM of compounds was added 20 min after seeding HMEC-1 on Matrigel.

Row | Compound | IC50 [1] [µM] | IC50 [2] [µM] | mVEGFR-2 relative detection, A-549 [3] [%] | Inhibition of membrane VEGFR-2, HT-29 [3] [%] | mVEGFR-2 relative detection, MCF-7 [3] [%] | Kinase activity measured in HT-29 cell cultures (VEGFR-2 kinase activity) [%] | Antiangiogenic effect on formation of new HMEC-1 capillary networks (HMEC-1 cells) | mVEGFR-2 relative detection, HT-29 [3]
1 | Nc1ccc(-c2cn(Cc3cccc(Cl)c3)nn2)cc1 [Compound 22, 4-(1-(3-chlorobenzyl)-1H-1,2,3-triazol-4-yl)aniline] | 8 ± 2 | > 100 | >100 | ~40 | >100 | 33 ± 4 | interfered with the formation of new microvessel networks | 
2 | Nc1ccc(-c2cn(Cc3ccc(Cl)cc3)nn2)cc1 [Compound 23, 4-(1-(4-chlorobenzyl)-1H-1,2,3-triazol-4-yl)aniline] | 9 ± 6 | > 100 | >100 | ~40 | >100 | 31 ± 8 | interfered with the formation of new microvessel networks | 65% and 65 ± 4%
3 | Nc1ccc(-c2cn(Cc3ccccc3Cl)nn2)cc1 [Compound 21, 4-(1-(2-chlorobenzyl)-1H-1,2,3-triazol-4-yl)aniline] | 11 ± 2 | > 100 | >100 |  | >100 | 46 ± 10 | interfered with the formation of new microvessel networks | 92 ± 5%
